Measurements: paper PMC9293779, “Elucidation of binding preferences of YEATS domains to site-specific acetylated nucleosome core particles” (The Journal of Biological Chemistry, 2022)
One block for each substance: values may come before it.

Assays:
AF9-YEATS = target: T1, AF9-YEATS (Homo sapiens, UniProt P42568); experiment: Peptide array-based binding assay, AF9-YEATS; settings: 10 μM YEATS domain, 4 °C overnight, anti-GST/HRP chemiluminescence
T1 construct: For ITC experiments, the cDNAs encoding AF9-YEATS (residues 1–138) and YEATS2-YEATS (200–349) were inserted into the same vector; polyhistidine tag (N); GST (N); made in house
T1 sequence (P42568 1-138): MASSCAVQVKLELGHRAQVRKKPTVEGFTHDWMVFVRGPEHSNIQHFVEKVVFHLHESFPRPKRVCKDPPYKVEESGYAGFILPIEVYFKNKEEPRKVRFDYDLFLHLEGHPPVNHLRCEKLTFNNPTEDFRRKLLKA
Procedure: (§1) For the assay using the MODified Histone Peptide Array, the same cDNA sequences encoding human YEATS domains were amplified by PCR and subcloned into a pCR2.1 vector with a GST-encoding sequence inserted after an N-terminal polyhistidine tag. For microscale thermophoresis measurements, a similar construct but without GST was used. Site-directed mutagenesis of AF9-YEATS (residues 1–138) was conducted by PCR using the DpnI restriction enzyme and the following primer sets: 5′-CCTTCACGCATCCTTTCCTCGTCCTAAAC-3′ (forward) and 5′-GGAAAGGATGCGTGAAGGTGAAACACCAC-3′ (reverse) for E57A and 5′-CGACTATGACCTGTTTCTGCATCTCG-3′ (forward) and 5′-GCAGAAACAGTGCATAGTCGAAGCGAAC-3′ (reverse) for D103A. The introduced mutations were verified by DNA sequencing. For X-ray structural analysis, the cDNAs encoding AF9-YEATS (residues 1–138) and YEATS2-YEATS (202–338) were amplified by PCR and subcloned into the pCR2.1 vector encoding GST and the polyhistidine tag. […]
(§2) Assays were performed using the MODified Histone Peptide Array (Active Motif) following the manufacturer’s protocol. […] Protein binding was detected by Chemi-Lumi One Super (Nacalai Tesque). Signal intensities were quantified by using the Protein Array Analyzer for ImageJ (written by Gilles Carpentier, 2010. The macro is available online: http://rsb.info.nih.gov/ij/macros/toolsets/Protein Array Analyzer.txt).

ENL-YEATS = experiment: Peptide array-based binding assay, ENL-YEATS; set-up: species or system human; settings: 10 μM YEATS domain, 4 °C overnight, anti-GST/HRP chemiluminescence
Procedure: as §1, §2

GAS41-YEATS = experiment: Peptide array-based binding assay, GAS41-YEATS; set-up: species or system human; settings: 10 μM YEATS domain, 4 °C overnight, anti-GST/HRP chemiluminescence
Procedure: as §1, §2

YEATS2-YEATS = target: YEATS2-YEATS; set-up: method as in 2 sources, one per row (each row's own in cited_ref): ref 50 = [50]; PMID 27103431; doi:10.1038/cr.2016.49; 50 Zhao D. Guan H. Zhao S. Mi W. Wen H. Li Y. YEATS2 is a selective histone crotonylation reader Cell Res. 26 2016 629 632 27103431 10.1038/cr.2016.49 PMC4856769 ||| ref 31 = [31]; PMID 29057918; doi:10.1038/s41467-017-01173-4; 31 Mi W. Guan H. Lyu J. Zhao D. Xi Y. Jiang S. YEATS2 links histone acetylation to tumorigenesis of non-small cell lung cancer Nat. Commun. 8 2017 1088 29057918 10.1038/s41467-017-01173-4 PMC5651844; settings: cited from earlier work
HDAC6 = settings: 1 μM TSA, preincubated 37 °C 1 h, NCP monoacetylated at H4 K5, K8, K12 or K16, 16 h, dot blot
Procedure: First, we examined whether the reconstituted NCP with Kac is functional as a substrate for lysine deacetylases (KDACs) in vitro. We tested activity of histone deacetylase 6 (HDAC6) toward NCP-containing H4 with K5ac, K8ac, K12ac, or K16ac. […] Subsequently, we examined whether a HDAC-specific inhibitor, trichostatin A (TSA), inhibits deacetylation of Kac-containing NCPs.
The NCPs for deacetylation assays were reconstituted using unmodified H2B. In each deacetylation reaction, 200 ng of the Kac-containing NCP was incubated with 50, 100, 200, or 400 ng of HDAC6 (SignalChem; cat. no. H88-30 G) in 20 μl at 37 °C for 16 h. In the inhibitor assays, TSA was added to the reaction mixture not containing NCP to a final concentration of 1 μM and preincubated at 37 °C for 1 h; NCP monoacetylated either at K5, K8, K12, or K16 of H4 was then added. After the reactions, samples were spotted on a nitrocellulose membrane (BioTrace NT Nitrocellulose Transfer Membrane, 0.2 μm, Pall Corporation, cat. no. 66485) and immunoblotted using H4-specific antibodies, each recognizing acetylation at K5, K8, K12, or K16.

binding on MODified Histone Peptide Array (AF9-YEATS): bound
binding on MODified Histone Peptide Array (ENL-YEATS): bound
binding on MODified Histone Peptide Array (GAS41-YEATS): bound
Substance: H4 (1–19) tail peptide diacetylated at K5/K8: peptide on MODified Histone Peptide Array (SGRGKGGKGLGKGGAKRHR; K5 and K8 acetylation; UniProt P62805 2-20, looked up, fragment)

Substance: K27-crotonylated H3 (1–34) peptide: K27-crotonylated H3 (1–34) peptide of ref 50
Kd (YEATS2-YEATS): 31.7 µM

Substance: trichostatin A [TSA]
inhibition of deacetylation by HDAC6 (HDAC6): inhibited deacetylation of all four Kac residues by HDAC6
